This data set in a line: Henry solubility constant Hcp at 298.15 K (mol/(m3 Pa)). To be noted: reference: Przyjazny et al. (1983).

Each structure is given as a SMILES string.

As for `CCCCS` [1-butanethiol], the “Henry solubility constant Hcp” value amounted to 0.0022. The same measure for `CCCS` [1-propanethiol]: 0.0024.

Take `Cc1cccs1` [2-methylthiophene]: the “Henry solubility constant Hcp” value stood at 0.0041. The same measure for `CC(C)SC(C)C` [di-(2-propyl)-sulfide]: 0.003; for `CCSSCC` [diethyl disulfide]: 0.0063; for `CCSCC` [diethyl sulfide]: 0.0054. The same measure for `CSC` [dimethyl sulfide]: 0.0056; for `CCCSCCC` [dipropyl sulfide]: 0.0033; for `CCS` [ethanethiol]: 0.0028. The same measure for `CS` [methanethiol]: 0.0039. Regarding `c1ccsc1` [thiophene], the “Henry solubility constant Hcp” value was found to be 0.0044.

The values are drawn from Sander's compilation of Henry's law constants (doi:10.1016/s0021-9673(00)91567-x).
